According to ChEMBL document CHEMBL2074065, “Pravastatin, an HMG-CoA reductase inhibitor, is transported by rat organic anion transporting polypeptide, oatp2” (Pharm Res, 1999):
Blank lines part the entries; values can stand above or below the molecule they belong to.

Assays:
[1] = target: T1, Solute carrier organic anion transporter family member 1A4 (Rattus norvegicus, UniProt O35913); test: TP_TRANSPORTER: inhibition of Pravastatin uptake (Pravastatin: 30 uM, E217betaG: 300 uM) in Xenopus laevis oocytes; type: functional, cell-based; details: oocyte
T1 sequence (O35913 whole entry): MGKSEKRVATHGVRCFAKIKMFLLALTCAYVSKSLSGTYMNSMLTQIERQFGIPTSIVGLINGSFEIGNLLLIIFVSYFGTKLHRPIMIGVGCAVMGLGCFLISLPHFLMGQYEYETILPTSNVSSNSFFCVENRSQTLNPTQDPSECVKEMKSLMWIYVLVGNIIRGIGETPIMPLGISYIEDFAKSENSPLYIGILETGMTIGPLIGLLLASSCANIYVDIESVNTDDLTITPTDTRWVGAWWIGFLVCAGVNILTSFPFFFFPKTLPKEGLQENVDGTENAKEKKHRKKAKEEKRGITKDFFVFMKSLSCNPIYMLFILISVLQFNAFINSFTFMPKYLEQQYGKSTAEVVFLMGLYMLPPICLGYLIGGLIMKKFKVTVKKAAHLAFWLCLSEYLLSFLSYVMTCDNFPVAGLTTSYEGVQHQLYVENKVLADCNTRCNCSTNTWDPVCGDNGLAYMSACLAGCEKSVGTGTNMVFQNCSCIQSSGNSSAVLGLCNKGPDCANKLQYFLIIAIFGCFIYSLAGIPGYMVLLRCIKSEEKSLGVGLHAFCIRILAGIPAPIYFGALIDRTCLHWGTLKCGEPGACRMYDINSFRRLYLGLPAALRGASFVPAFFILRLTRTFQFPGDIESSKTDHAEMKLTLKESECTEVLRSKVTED

[2] = target: T1, Solute carrier organic anion transporter family member 1A4; test: TP_TRANSPORTER: inhibition of Pravastatin uptake (Pravastatin: 30 uM, Simvastatin: 300 uM) in Xenopus laevis oocytes; type: functional, cell-based; details: oocyte
[3] = target: T1, Solute carrier organic anion transporter family member 1A4; test: TP_TRANSPORTER: inhibition of Pravastatin uptake (Pravastatin: 30 uM, BSP: 300 uM) in Xenopus laevis oocytes; type: functional, cell-based; details: oocyte
[4] = substrate: CC[C@H](C)C(=O)O[C@H]1C[C@H](O)C=C2C=C[C@H](C)[C@H](CC[C@@H](O)C[C@@H](O)CC(=O)O)[C@H]21; test: TP_TRANSPORTER: uptake in Xenopus laevis oocytes; type: functional, cell-based, Oocyte

Molecule: C[C@]12CC[C@@H]3c4ccc(O)cc4CC[C@H]3[C@@H]1CC[C@@H]2O[C@@H]1O[C@H](C(=O)O)[C@@H](O)[C@H](O)[C@H]1O [ESTRADIOL 17B GLUCURONIDE]
Activity [1]: inhibitor [+]

Activity [2]: inhibitor [+]
Molecule: CCC(C)(C)C(=O)O[C@H]1C[C@@H](C)C=C2C=C[C@H](C)[C@H](CC[C@@H]3C[C@@H](O)CC(=O)O3)[C@H]21 [SIMVASTATIN]

Molecule: O=C1OC(c2ccc(O)c(S(=O)(=O)[O-])c2)(c2ccc(O)c(S(=O)(=O)[O-])c2)c2c(Br)c(Br)c(Br)c(Br)c21.[Na+].[Na+] [SULFOBROMOPHTHALEIN SODIUM]
Activity [3]: inhibitor [+]

B1: Solute carrier organic anion transporter family member 1A4 (Rattus norvegicus) (protein)
chain: T1 sequence (O35913 whole entry)
Km [4]: 37.5 µM
